Experimental data reported in patent US12129237B2, “Substituted diaminocarboxamide and diaminocarbonitrile pyrimidines, compositions thereof, and methods of treatment therewith” (SIGNAL PHARMACEUTICALS, LLC, priority 2011, dated 2024).

These compounds were tested against T1, JNK1 (Homo sapiens, UniProt P45983) (assay: JNK1 biochemical assays (one or more of: time resolved fluorescence, Z'-LYTE Cascade, radioactive)). Conditions: Table 2; JNK1 IC50 activity level; read-out: Act. Level.
T1 construct: purchased Carna Biosciences
T1 sequence (P45983 whole entry): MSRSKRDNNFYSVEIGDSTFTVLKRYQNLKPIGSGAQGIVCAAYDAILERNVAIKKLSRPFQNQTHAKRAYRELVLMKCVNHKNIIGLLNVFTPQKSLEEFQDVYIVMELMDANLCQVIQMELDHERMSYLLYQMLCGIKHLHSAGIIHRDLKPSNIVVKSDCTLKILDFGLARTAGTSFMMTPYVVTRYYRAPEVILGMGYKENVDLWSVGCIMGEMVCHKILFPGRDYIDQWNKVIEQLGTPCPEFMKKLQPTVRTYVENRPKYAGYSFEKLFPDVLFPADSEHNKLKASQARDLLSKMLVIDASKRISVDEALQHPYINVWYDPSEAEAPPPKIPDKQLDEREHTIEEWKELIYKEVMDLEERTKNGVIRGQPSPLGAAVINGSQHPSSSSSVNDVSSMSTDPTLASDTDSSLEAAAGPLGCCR

For `NC(=O)c1cnc(NC2CCOCC2)nc1Nc1ccc2ncccc2c1` [Example B-2, 4-(quinolin-6-ylamino)-2-(tetrahydro-2H-pyran-4-ylamino)pyrimidine-5-carboxamide], which IC50 is on record?
Its IC50 is less than 200 nM.

How did the IC50 turn out when `CC1(C)OCC(CNc2ncc(C(N)=O)c(Nc3ccccc3)n2)O1` (stereo not drawn) [Example B-58, 2-((2,2-dimethyl-1,3-dioxolan-4-yl)methylamino)-4-(phenylamino)pyrimidine-5-carboxamide] was run?
Its IC50 is 200 to 800 nM.

With `CCOc1ccccc1CNc1ncc(C(N)=O)c(Nc2ccccc2)n1` [Example B-54, 2-(2-ethoxybenzylamino)-4-(phenylamino)pyrimidine-5-carboxamide] as the compound, how does the IC50 read?
Its IC50 is 800 to 1000 nM.

For `COCCNc1ncc(C(N)=O)c(Nc2ccccc2)n1` [Example B-69, 2-(2-methoxyethylamino)-4-(phenylamino)pyrimidine-5-carboxamide], which IC50 is on record?
Its IC50 is 800 to 1000 nM.

How did the IC50 turn out when `NC(=O)c1cnc(NCc2ccccc2)nc1Nc1ccccc1` [Example B-73, 2-(benzylamino)-4-(phenylamino)pyrimidine-5-carboxamide] was run?
The IC50 was 800 to 1000 nM.

For `CC(Nc1ncc(C(N)=O)c(Nc2ccccc2)n1)c1ccccc1` (stereo not drawn) [Example B-53, 4-(phenylamino)-2-(1-phenylethylamino)pyrimidine-5-carboxamide], which IC50 is on record?
The IC50 was 200 to 800 nM.

For `CC(C)Nc1nc(N[C@@H]2CCc3ccccc3C2)ncc1C(N)=O` [Example B-83, (R)-4-(isopropylamino)-2-(1,2,3,4-tetrahydronaphthalen-2-ylamino)pyrimidine-5-carboxamide], which IC50 is on record?
The IC50 was less than 200 nM.

`CC(C)Nc1nc(N[C@@H]2CCc3cnccc3C2)ncc1C(N)=O` [Example B-92, (R)-4-(isopropylamino)-2-(5,6,7,8-tetrahydroisoquinolin-6-ylamino)pyrimidine-5-carboxamide] was tested. Which IC50 did it give?
Its IC50 is less than 200 nM.

Same assay, conditions: Table 3; JNK1 IC50 activity level; read-out: Act. Level

`CCO[C@H]1CC[C@H](Nc2ncc(C#N)c(N[C@H]3CCCOC3)n2)CC1` [Example C-24, 2-((1r,4S)-4-ethoxycyclohexylamino)-4-((S)-tetrahydro-2H-pyran-3-ylamino)pyrimidine-5-carbonitrile] was tested. Which IC50 did it give?
The IC50 was 1000 to 10000 nM.

With `CCO[C@H]1CC[C@H](Nc2ncc(C#N)c(N[C@H]3CC[C@H](O)CC3)n2)CC1` [Example C-25, 2-((1r,4r)-4-ethoxycyclohexylamino)-4-((1r,4r)-4-hydroxycyclohexylamino) pyrimidine-5-carbonitrile] as the compound, how does the IC50 read?
The IC50 was 800 to 1000 nM.

Which IC50 does the source give for `CO[C@H]1CC[C@H](Nc2ncc(C#N)c(N[C@H]3CC[C@H](O)CC3)n2)CC1` [Example C-15, 4-((1r,4r)-4-hydroxycyclohexylamino)-2-((1r,4r)-4-methoxycyclohexylamino) pyrimidine-5-carbonitrile] here?
Its IC50 is 800 to 1000 nM.

Same assay, conditions: one or more of the JNK1 biochemical assays; read-out: Act. Level (JNK1 IC50 activity level)

For `NC(=O)c1cnc(N[C@H]2CC[C@H](O)CC2)nc1NC12CCC(C1)C2` [Example 477, 4-(bicyclo[2.1.1]hexan-1-ylamino)-2-((1r,4r)-4-hydroxycyclohexylamino)pyrimidine-5-carboxamide], which IC50 is on record?
Its IC50 is less than 200 nM.

Which IC50 does the source give for `CC(C)(C)Nc1nc(NC23CCC(F)(CC2)CC3)ncc1C(N)=O` [Example 289, 4-(tert-butylamino)-2-(4-fluorobicyclo[2.2.2]octan-1-ylamino)pyrimidine-5-carboxamide] here?
The IC50 was less than 200 nM.

With `CC1(Nc2nc(N[C@@H]3CCC[C@H](O)C3)ncc2C(N)=O)CCC1` [Example 404, 2-((1R,3S)-3-hydroxycyclohexylamino)-4-(1-methylcyclobutylamino)pyrimidine-5-carboxamide] as the compound, how does the IC50 read?
Its IC50 is less than 200 nM.

How did the IC50 turn out when `CC(C)(C)Nc1ncc(C(N)=O)c(N[C@@H]2CCC[C@H]2CO)n1` [Example 330, 2-(tert-butylamino)-4-((1R,2R)-2-(hydroxymethyl)cyclopentylamino)pyrimidine-5-carboxamide] was run?
Its IC50 is less than 200 nM.

Which IC50 does the source give for `CC(C)(Nc1nc(N[C@H]2CC[C@H](O)CC2)ncc1C(N)=O)C1CC1` [Example 316, 4-(2-cyclopropylpropan-2-ylamino)-2-((1r,4r)-4-hydroxycyclohexylamino)pyrimidine-5-carboxamide] here?
Its IC50 is less than 200 nM.

How did the IC50 turn out when `NC(=O)c1cnc(NC2CC2)nc1N[C@@H]1CCCC[C@H](O)C1` [Example 377, 2-(cyclopropylamino)-4-((1R,3S)-3-hydroxycycloheptylamino)pyrimidine-5-carboxamide] was run?
The IC50 was less than 200 nM.

How did the IC50 turn out when `CC(C)(C)Nc1nc(N[C@H]2CC[C@](C)(O)CC2)ncc1C(N)=O` [Example 302, 4-(tert-butylamino)-2-((1r,4r)-4-hydroxy-4-methylcyclohexylamino)pyrimidine-5-carboxamide] was run?
Its IC50 is less than 200 nM.

How did the IC50 turn out when `CCO[C@H]1CC[C@H](Nc2ncc(C(N)=O)c(N[C@H](C)C(C)C)n2)CC1` [Example 290, 2-((1r,4R)-4-ethoxycyclohexylamino)-4-((R)-3-methylbutan-2-ylamino)pyrimidine-5-carboxamide] was run?
The IC50 was less than 200 nM.

With `NC(=O)c1cnc(NC2CCOCC2)nc1NC12CC(C1)C2` [Example 407, 4-(bicyclo[1.1.1]pentan-1-ylamino)-2-(tetrahydro-2H-pyran-4-ylamino)pyrimidine-5-carboxamide] as the compound, how does the IC50 read?
Its IC50 is less than 200 nM.

For `CN(C)C(=O)[C@H]1CC[C@H](Nc2ncc(C(N)=O)c(NC3(C)CCC3)n2)CC1` [Example 414, 2-((1r,4r)-4-(dimethylcarbamoyl)cyclohexylamino)-4-(1-methylcyclobutylamino)pyrimidine-5-carboxamide], which IC50 is on record?
The IC50 was less than 200 nM.

`CO[C@H]1CC[C@H](Nc2ncc(C(N)=O)c(NC3CCC3C)n2)CC1` (stereo partly drawn) [Example 242, 2-((1r,4r)-4-methoxycyclohexylamino)-4-(2-methylcyclobutylamino)pyrimidine-5-carboxamide] was tested. Which IC50 did it give?
Its IC50 is less than 200 nM.

How did the IC50 turn out when `CC(C)(C)Nc1nc(NC2CCCC(O)CC2)ncc1C(N)=O` (stereo not drawn) [Example 251, 4-(tert-butylamino)-2-(4-hydroxycycloheptylamino)pyrimidine-5-carboxamide] was run?
Its IC50 is less than 200 nM.

Which IC50 does the source give for `C[C@@H]1CC[C@@H](Nc2nc(N[C@@H](C)C(C)(C)C)ncc2C(N)=O)C[C@H]1O` [Example 469, 2-((S)-3,3-dimethylbutan-2-ylamino)-4-((1R,3R,4R)-3-hydroxy-4-methylcyclohexylamino)pyrimidine-5-carboxamide] here?
The IC50 was less than 200 nM.

Which IC50 does the source give for `CC(C)(C)CNc1nc(N[C@H]2CC[C@H](O)CC2)ncc1C(N)=O` [Example 228, 2-((1r,4r)-4-hydroxycyclohexylamino)-4-(neopentylamino)pyrimidine-5-carboxamide] here?
The IC50 was less than 200 nM.

Which IC50 does the source give for `NC(=O)c1cnc(NC23CCC(F)(CC2)CC3)nc1N[C@@H]1CCCC[C@H](O)C1` [Example 335, 2-(4-fluorobicyclo[2.2.2]octan-1-ylamino)-4-((1R,3S)-3-hydroxycycloheptylamino)pyrimidine-5-carboxamide] here?
Its IC50 is less than 200 nM.

How did the IC50 turn out when `C[C@H]1C[C@H](Nc2nc(N[C@H]3CC[C@H](O)CC3)ncc2C(N)=O)C1` [Example 325, 2-((1r,4r)-4-hydroxycyclohexylamino)-4-((1r,3r)-3-methylcyclobutylamino)pyrimidine-5-carboxamide] was run?
Its IC50 is less than 200 nM.

`NC(=O)c1cnc(NC23CCC(O)(CC2)CC3)nc1NC1CCC1` [Example 232, 4-(cyclobutylamino)-2-(4-hydroxybicyclo[2.2.2]octan-1-ylamino)pyrimidine-5-carboxamide] was tested. Which IC50 did it give?
Its IC50 is less than 200 nM.

Same assay, conditions: tested in one or more of the JNK1 biochemical assays; read-out: Act. Level (JNK1 biochemical assay IC50 activity level)

Which IC50 does the source give for `CO[C@H]1CC[C@H](Nc2ncc(C(N)=O)c(N[C@H]3CCCNC3)n2)CC1` [Example A-48, 2-((1r,4S)-4-methoxycyclohexylamino)-4-((S)-piperidin-3-ylamino)pyrimidine-5-carboxamide] here?
The IC50 was 800 to 1000 nM.

How did the IC50 turn out when `CC(C)Nc1ncc(C(N)=O)c(N[C@H]2CC[C@@H](C(=O)N3CCCC3)CC2)n1` [Example A-143, 2-(isopropylamino)-4-((1s,4s)-4-(pyrrolidine-1-carbonyl)cyclohexylamino)pyrimidine-5-carboxamide] was run?
The IC50 was 800 to 1000 nM.

With `CCO[C@H]1CC[C@H](Nc2ncc(C(N)=O)c(N[C@H]3CCCOC3)n2)CC1` [Example A-60, 2-((1r,4S)-4-ethoxycyclohexylamino)-4-((S)-tetrahydro-2H-pyran-3-ylamino)pyrimidine-5-carboxamide] as the compound, how does the IC50 read?
Its IC50 is less than 200 nM.

Which IC50 does the source give for `NC(=O)c1cnc(NC23CCC(CC2)CC3)nc1N[C@@H]1CCC[C@H](O)C1` [Example A-159, 2-(bicyclo[2.2.2]octan-1-ylamino)-4-((1R,3S)-3-hydroxycyclohexylamino)pyrimidine-5-carboxamide] here?
Its IC50 is less than 200 nM.

Which IC50 does the source give for `NC(=O)c1cnc(N[C@H]2CC[C@H](OCC(F)(F)F)CC2)nc1N[C@@H]1CCCOC1` [Example A-188, 4-((R)-tetrahydro-2H-pyran-3-ylamino)-2-((1r,4R)-4-(2,2,2-trifluoroethoxy)cyclohexylamino)pyrimidine-5-carboxamide] here?
Its IC50 is less than 200 nM.

With `CC(C)Nc1ncc(C(N)=O)c(N[C@H]2CC[C@@H](CO)CC2)n1` [Example A-139, 4-((1s,4s)-4-(hydroxymethyl)cyclohexylamino)-2-(isopropylamino)pyrimidine-5-carboxamide] as the compound, how does the IC50 read?
The IC50 was 200 to 800 nM.

`CCO[C@H]1CC[C@H](Nc2ncc(C(N)=O)c(NC3CCC3)n2)CC1` [Example A-197, 4-(cyclobutylamino)-2-((1r,4r)-4-ethoxycyclohexylamino)pyrimidine-5-carboxamide] was tested. Which IC50 did it give?
The IC50 was less than 200 nM.

With `CCO[C@H]1CC[C@@H](Nc2nc(NC3CCN(C(=O)CC)CC3)ncc2C(N)=O)CC1` [Example A-113, 4-((1s,4s)-4-ethoxycyclohexylamino)-2-(1-propionylpiperidin-4-ylamino)pyrimidine-5-carboxamide] as the compound, how does the IC50 read?
The IC50 was less than 200 nM.

`CO[C@H]1CC[C@H](Nc2ncc(C(N)=O)c(NC3CCC4(CC3)OCCO4)n2)CC1` [Example A-121, 4-(1,4-dioxaspiro[4.5]decan-8-ylamino)-2-((1r,4r)-4-methoxycyclohexylamino)pyrimidine-5-carboxamide] was tested. Which IC50 did it give?
The IC50 was less than 200 nM.

Which IC50 does the source give for `CCO[C@H]1CC[C@H](Nc2ncc(C(N)=O)c(NC[C@@H](C)O)n2)CC1` [Example A-67, 2-((1r,4R)-4-ethoxycyclohexylamino)-4-((R)-2-hydroxypropylamino)pyrimidine-5-carboxamide] here?
The IC50 was less than 200 nM.

Which IC50 does the source give for `CO[C@H]1CC[C@H](Nc2ncc(C(N)=O)c(N[C@@H]3CCCC[C@](C)(O)C3)n2)CC1` [Example A-183, 4-((1R,3S)-3-hydroxy-3-methylcycloheptylamino)-2-((1r,4R)-4-methoxycyclohexylamino)pyrimidine-5-carboxamide] here?
Its IC50 is less than 200 nM.
